# Target: T1, Apelin receptor (Homo sapiens, UniProt P35414)
# T1 sequence (P35414 whole entry): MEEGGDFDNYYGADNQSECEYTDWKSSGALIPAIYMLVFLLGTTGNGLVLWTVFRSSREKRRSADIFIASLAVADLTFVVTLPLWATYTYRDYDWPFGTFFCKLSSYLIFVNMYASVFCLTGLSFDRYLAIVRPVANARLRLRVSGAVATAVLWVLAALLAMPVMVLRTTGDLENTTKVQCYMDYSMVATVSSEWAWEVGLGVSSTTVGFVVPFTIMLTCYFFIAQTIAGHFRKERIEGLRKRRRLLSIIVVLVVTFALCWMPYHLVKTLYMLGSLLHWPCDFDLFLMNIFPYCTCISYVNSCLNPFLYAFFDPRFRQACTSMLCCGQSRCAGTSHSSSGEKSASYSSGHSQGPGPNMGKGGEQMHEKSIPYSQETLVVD
# Experiment: APJ beta-arrestin recruitment antagonism, SAR follow-up, selectivity assay for CCR6 antagonist project, cell-based, luminescent, enzyme-fragment complementation (AID 588359)
smiles,measurement,value
"OCC12C=CC(O1)c1c2c(O)n(-c2ccccc2-c2ccccc2)c1O (stereo not drawn) [7-(hydroxymethyl)-2-(2-phenylphenyl)-4,7a-dihydro-3aH-octahydro-1H-4,7-epoxyisoindole-1,3-dione]",IC50,> 66.6 µM
"CC(N=Nc1ccc2ccccc2n1)c1ccccc1O (stereo not drawn) [(6Z)-6-[1-[N'-(2-quinolyl)hydrazino]ethylidene]cyclohexa-2,4-dien-1-one]",IC50,4.12 µM
CN1C(=O)C(C2CC(c3ccc(Cl)cc3)N=N2)C(=O)N(C)C1=O (stereo not drawn) [SMR000439471],IC50,7.22 µM
